In general, MIC refers to the least concentration at which growth counts as inhibited.

SMILES strings stand for the structures. Converted amounts (≈) assume the structure as drawn.

The subject of this experiment is Mycobacterium tuberculosis. In words: Antimycobacterial activity against multidrug-resistant Mycobacterium tuberculosis by agar dilution method. The experiment is classed as functional. (In general: In agar dilution the substance is mixed into plates at graded concentrations.)

The molecule `CN1CC2=C(OC(N)=C(C#N)C2c2ccc(F)cc2)/C(=C/c2ccc(F)cc2)C1` (stereo not drawn) displayed an MIC of 0.97 µM (≈ 0.38 µg/mL).
`CN1CC2=C(OC(N)=C(C#N)C2c2cccc(F)c2)/C(=C/c2cccc(F)c2)C1` (stereo not drawn) came in with an MIC of 1.99 µM (≈ 0.779 µg/mL).
Take `CN1CC2=C(OC(N)=C(C#N)C2c2ccc(N(C)C)cc2)/C(=C/c2ccc(N(C)C)cc2)C1` (stereo not drawn): the MIC was found to be 0.43 µM (≈ 0.19 µg/mL).
As to `CN1CC2=C(OC(N)=C(C#N)C2c2ccccc2Cl)/C(=C/c2ccccc2Cl)C1` (stereo not drawn), the minimal inhibitory concentration (MIC) came to 3.68 µM (≈ 1.56 µg/mL).
The result for `CN1CC2=C(OC(N)=C(C#N)C2c2cccc([N+](=O)[O-])c2)/C(=C/c2cccc([N+](=O)[O-])c2)C1` (stereo not drawn) reads 1.75 µM (≈ 0.78 µg/mL); that for `CN1CC2=C(OC(N)=C(C#N)C2c2ccc(Cl)cc2)/C(=C/c2ccc(Cl)cc2)C1` (stereo not drawn), 1.84 µM (≈ 0.781 µg/mL).
For the molecule `COc1c(N2CCNC(C)C2)c(F)cc2c(=O)c(C(=O)O)cn(C3CC3)c12` (stereo not drawn) [GATIFLOXACIN], the MIC was 8.34 µM (≈ 3.13 µg/mL).
As to `NNC(=O)c1ccncc1` [ISONIAZID], inhibition of growth (MIC) required 45.6 µM (≈ 6.25 µg/mL).

(Values after ChEMBL document CHEMBL1140558, “An atom efficient, solvent-free, green synthesis and antimycobacterial evaluation of 2-amino-6-methyl-4-aryl-8-[(E)-arylmethylidene]-5,6,7,8-tetrahydro-4H-pyrano[3,2-c]pyridine-3-carbonitriles” (2007).)
